# In patent US20050175550A1, “Compositions for oral use” (priority 2000, published 2005):
# Columns and labels:
# Test in all cases: MIC by agar plate dilution method on standard strains (Example 3)
# Format in all cases: cell-based
# Settings in all cases: read-out: MIC
# [1] = system: Moraxella (Branhamella) catarrhalis ATCC25240
# Procedure: (§1) Drug solutions at a concentration 10 times as high as the maximum applicable concentration were prepared as original solutions of test drugs given in Table 2 (as to solvents used for this purpose, reference should be made also to Table 2). Serial two-fold dilution series of the original solutions were prepared at desired stages, and 1 ml each of the diluted drug solutions was added to 9 ml of media given in Table 3 to prepare drug plates. […] • 1) Bacterial solutions stocked at −80° C. were inoculated on agar media (as to media used, reference should be made to Table 3), and then incubated at 37° C. overnight. When desired, subculturing was conducted once more on the same agar media (by overnight incubation at 37° C.). • 2) Colonies growing on the agar media were sampled by a platinum loop, suspended in liquid media (reference should be made to Table 3) and statically incubated at 37° C. for 18 hours (preculturing). • 3) Preculturing was continued up to McFarland 0.5 (McFarland 0.5=about 10^8 CFU/ml), and then the culture broths were diluted with Muellar Hinton Broth to make 10^6 CFU/ml. 5 μl each of the diluted solutions were inoculated on the above-mentioned drug plates by an inoculator Microplanter. […] Thus, bacterial solutions at about 10^8 CFU/ml can be easily prepared by use of McFarland 0.5. Bacterial solutions at such a turbidity are commercially available, but can be easily prepared.
# [2] = system: Moraxella (Branhamella) catarrhalis ATCC43617
# Procedure: as §1
# [3] = system: Pseudomonas aeruginosa ATCC27853
# Procedure: as §1
# [4] = system: Serratia marcescens ATCC13880
# Procedure: as §1
# [5] = system: Staphylococcus aureus ATCC29247
# Procedure: as §1
# [6] = system: Staphylococcus aureus ATCC6538P
# Procedure: as §1
# [7] = system: Streptococcus agalactiae ATCC13813
# Procedure: as §1
# [8] = system: Streptococcus pneumoniae ATCC49619
# Procedure: as §1
# [9] = system: Streptococcus pneumoniae ATCC6301
# Procedure: as §1
# [10] = system: Streptococcus pneumoniae ATCC6302
# Procedure: as §1
# [11] = system: Streptococcus pneumoniae ATCC6303
# Procedure: as §1
# [12] = system: Streptococcus pneumoniae ATCC6306
# Procedure: as §1
# [13] = system: Streptococcus pyogenes ATCC12344
# Procedure: as §1
# [14] = system: Streptococcus pyogenes ATCC12353
# Procedure: as §1
# [15] = system: Streptococcus pyogenes ATCC12385
# Procedure: as §1
structure (smiles),measurement,setting,value
"CC[C@H]1OC(=O)[C@H](C)[C@@H](O[C@H]2C[C@@](C)(OC)[C@@H](O)[C@H](C)O2)[C@H](C)[C@@H](O[C@@H]2O[C@H](C)C[C@H](N(C)C)[C@H]2O)[C@](C)(OC)C[C@@H](C)C(=O)[C@H](C)[C@@H](O)[C@]1(C)O [CAM, Clarithromycin]",MIC,[1],0.2 µg/mL
same,MIC,[2],0.2 µg/mL
same,MIC,[3],> 100 µg/mL
same,MIC,[4],> 100 µg/mL
same,MIC,[5],50 µg/mL
same,MIC,[6],0.2 µg/mL
same,MIC,[7],0.05 µg/mL
same,MIC,[8],0.05 µg/mL
same,MIC,[9],0.05 µg/mL
same,MIC,[10],0.1 µg/mL
same,MIC,[11],0.05 µg/mL
same,MIC,[12],0.1 µg/mL
same,MIC,[13],0.05 µg/mL
same,MIC,[14],0.1 µg/mL
same,MIC,[15],0.1 µg/mL
